Values after ≈ are worked out from the molar mass of the structure shown.
What was measured:
[1] = target: T1, UDP-N-acetylmuramoyl-L-alanyl-D-glutamate--2,6-diaminopimelate ligase (Escherichia coli (strain K12), UniProt P22188); experiment: Inhibition of Escherichia coli MurE after 15 mins in presence of 0.005% Triton X-114 by Malachite green assay
T1 sequence (P22188 whole entry): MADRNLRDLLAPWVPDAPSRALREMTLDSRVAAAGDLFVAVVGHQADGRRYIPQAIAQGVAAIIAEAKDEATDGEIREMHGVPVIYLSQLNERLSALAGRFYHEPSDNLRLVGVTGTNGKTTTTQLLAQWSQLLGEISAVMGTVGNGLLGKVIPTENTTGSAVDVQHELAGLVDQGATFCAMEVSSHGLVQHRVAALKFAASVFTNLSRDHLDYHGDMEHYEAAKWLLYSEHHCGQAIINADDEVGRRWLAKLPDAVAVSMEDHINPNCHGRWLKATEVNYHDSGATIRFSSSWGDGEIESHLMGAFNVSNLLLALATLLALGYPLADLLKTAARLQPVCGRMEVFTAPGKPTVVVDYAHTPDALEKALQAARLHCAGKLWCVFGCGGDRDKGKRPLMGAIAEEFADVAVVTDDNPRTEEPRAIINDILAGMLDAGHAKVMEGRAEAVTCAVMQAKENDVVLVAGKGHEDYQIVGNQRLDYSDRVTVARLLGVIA

[2] = target: T2, UDP-N-acetylmuramoyl-tripeptide--D-alanyl-D-alanine ligase (Escherichia coli K-12, UniProt P11880); experiment: Inhibition of Escherichia coli MurF after 15 mins in presence of 0.005% Triton X-114 by Malachite green assay
T2 sequence (P11880 whole entry): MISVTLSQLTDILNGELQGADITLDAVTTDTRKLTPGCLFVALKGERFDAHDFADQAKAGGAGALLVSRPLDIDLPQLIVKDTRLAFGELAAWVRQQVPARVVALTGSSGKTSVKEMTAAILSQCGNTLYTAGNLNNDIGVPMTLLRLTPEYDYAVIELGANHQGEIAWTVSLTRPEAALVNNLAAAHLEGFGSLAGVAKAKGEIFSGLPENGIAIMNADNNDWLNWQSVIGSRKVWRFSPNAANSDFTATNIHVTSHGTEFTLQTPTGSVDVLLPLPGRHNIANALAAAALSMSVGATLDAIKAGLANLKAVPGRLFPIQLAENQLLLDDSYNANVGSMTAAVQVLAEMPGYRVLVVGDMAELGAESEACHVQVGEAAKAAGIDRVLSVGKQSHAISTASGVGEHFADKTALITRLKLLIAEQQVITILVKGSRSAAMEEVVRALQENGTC

[3] = target: UDP-N-acetylmuramate--L-alanine ligase (Escherichia coli K-12, UniProt P17952); experiment: Inhibition of Escherichia coli MurC after 15 mins in presence of 0.005% Triton X-114 by Malachite green assay
[4] = target: T3, UDP-N-acetylmuramoylalanine--D-glutamate ligase (Escherichia coli K-12, UniProt P14900); experiment: Inhibition of Escherichia coli MurD after 15 mins in presence of 0.005% Triton X-114 by Malachite green assay
T3 sequence (P14900 whole entry): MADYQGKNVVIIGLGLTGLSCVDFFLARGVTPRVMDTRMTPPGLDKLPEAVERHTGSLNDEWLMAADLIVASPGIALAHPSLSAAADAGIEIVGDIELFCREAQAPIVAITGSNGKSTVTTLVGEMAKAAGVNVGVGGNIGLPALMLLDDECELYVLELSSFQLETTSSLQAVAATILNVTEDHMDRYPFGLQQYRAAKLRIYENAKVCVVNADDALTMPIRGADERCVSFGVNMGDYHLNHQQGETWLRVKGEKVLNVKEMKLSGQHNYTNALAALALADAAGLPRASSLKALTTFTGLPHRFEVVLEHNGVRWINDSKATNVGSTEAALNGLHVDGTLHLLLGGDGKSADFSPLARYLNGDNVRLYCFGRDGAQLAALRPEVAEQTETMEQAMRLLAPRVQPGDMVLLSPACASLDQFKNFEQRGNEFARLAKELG

[5] = system: Staphylococcus aureus; experiment: microbe, parasite or virus in culture; conditions: ATCC 29213
Description: Antimicrobial activity against Staphylococcus aureus ATCC 29213 after 16 to 20 hrs

[6] = target: T4, UDP-N-acetylmuramoyl-tripeptide--D-alanyl-D-alanine ligase (Escherichia coli K-12) (UniProt P11880); experiment: Inhibition of Escherichia coli MurF assessed as residual enzyme activity at 250 uM after 15 mins in presence of 0.005% Triton X-114 by Malachite green assay
T4 sequence (whole entry): T2 sequence (P11880 whole entry)

[7] = system: Haemophilus influenzae; experiment: Antimicrobial activity against Haemophilus influenzae ATCC 49766 after 20 to 24 hrs; assay type: functional
[8] = system: Enterococcus faecalis; experiment: Antimicrobial activity against Enterococcus faecalis ATCC 29212 after 16 to 20 hrs; assay type: functional
[9] = target: UDP-N-acetylmuramate--L-alanine ligase (Escherichia coli K-12) (UniProt P17952); experiment: Inhibition of Escherichia coli MurC assessed as residual enzyme activity at 250 uM after 15 mins in presence of 0.005% Triton X-114 by Malachite green assay
[10] = target: T5, UDP-N-acetylmuramoylalanine--D-glutamate ligase (Escherichia coli K-12) (UniProt P14900); experiment: Inhibition of Escherichia coli MurD assessed as residual enzyme activity at 250 uM after 15 mins in presence of 0.005% Triton X-114 by Malachite green assay
T5 sequence (whole entry): T3 sequence (P14900 whole entry)

[11] = target: T6, UDP-N-acetylmuramoyl-L-alanyl-D-glutamate--2,6-diaminopimelate ligase (Escherichia coli (strain K12)) (UniProt P22188); experiment: Inhibition of Escherichia coli MurE assessed as residual enzyme activity at 250 uM after 15 mins in presence of 0.005% Triton X-114 by Malachite green assay
T6 sequence (whole entry): T1 sequence (P22188 whole entry)

[12] = target: T3, UDP-N-acetylmuramoylalanine--D-glutamate ligase; experiment: Partial non-competitive inhibition of Escherichia coli MurD using UMA substrate by steady-state enzyme kinetics assay
[13] = target: T3, UDP-N-acetylmuramoylalanine--D-glutamate ligase; experiment: Partial un-competitive inhibition of Escherichia coli MurD using ATP substrate by steady-state enzyme kinetics assay
[14] = target: T3, UDP-N-acetylmuramoylalanine--D-glutamate ligase; experiment: Competitive inhibition of Escherichia coli MurD using D-Glu substrate by steady-state enzyme kinetics assay

Sequence of UDP-N-acetylmuramate--L-alanine ligase (P17952 whole entry): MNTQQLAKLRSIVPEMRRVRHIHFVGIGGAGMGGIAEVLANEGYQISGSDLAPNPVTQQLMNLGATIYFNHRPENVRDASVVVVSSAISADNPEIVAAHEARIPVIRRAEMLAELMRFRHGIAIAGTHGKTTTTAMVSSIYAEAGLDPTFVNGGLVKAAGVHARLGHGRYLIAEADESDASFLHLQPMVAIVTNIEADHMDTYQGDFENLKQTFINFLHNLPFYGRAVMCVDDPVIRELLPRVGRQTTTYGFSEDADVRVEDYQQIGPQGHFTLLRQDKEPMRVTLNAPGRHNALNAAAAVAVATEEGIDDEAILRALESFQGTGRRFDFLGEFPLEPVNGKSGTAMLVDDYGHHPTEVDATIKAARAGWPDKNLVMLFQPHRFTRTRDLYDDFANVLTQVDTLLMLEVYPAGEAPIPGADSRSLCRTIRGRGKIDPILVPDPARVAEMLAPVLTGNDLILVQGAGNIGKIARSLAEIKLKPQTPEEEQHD
Sequence of UDP-N-acetylmuramate--L-alanine ligase (Escherichia coli K-12) (P17952 whole entry, looked up): as the sequence (P17952 whole entry) above

Molecule `Cc1ccc(/N=C2\NC(=O)/C(=C\c3cc(C)n(-c4cc(C(=O)O)cc(C(=O)O)c4)c3C)S2)cc1` has an IC50 [1] of 245 µM, an IC50 [2] of 201 µM and an IC50 [3] of 107 µM. It also gave an IC50 [4] of 170 µM.

In the case of `Cc1cc(/C=C2/C(=O)NC(=S)N(c3ccccc3)C2=O)c(C)n1-c1cc(C(=O)O)cc(C(=O)O)c1`, the MIC [5] is reported as over 256 µg/mL, the Activity [6] is reported as 84% and the MIC [7] is reported as over 256 µg/mL. It also gave an MIC [8] of over 256 µg/mL and an Activity [9] of 75%.

With `C/N=C1/S/C(=C/c2cc(C)n(-c3cc(C(=O)O)cc(C(=O)O)c3)c2C)C(=O)N1C` the Activity [10] was 89%, the Activity [6] was 95% and the Activity [11] was 97%. For the same molecule, the Activity [9] was 106%.

With `O=C1N/C(=N\c2ccc(Br)cc2)S/C1=C/c1c[nH]c2ccccc12` the Activity [10] was 102%, the Activity [6] was 75% and the Activity [11] was 90%. It also gave an Activity [9] of 87%.

`CCc1ccc(N2C(=O)NC(=O)/C(=C/c3cc(C)n(-c4cc(C(=O)O)cc(C(=O)O)c4)c3C)C2=O)cc1` showed an Activity [10] of 81%, an Activity [6] of 75% and an IC50 [1] of 330 µM. For the same molecule, the Activity [9] was 74%.

Molecule `Cc1cc(/C=C2/S/C(=N/c3ccccc3)NC2=O)c(C)n1-c1cc(C(=O)O)cc(C(=O)O)c1` has an MIC [5] of over 256 µg/mL, an IC50 [1] of 494 µM and an IC50 [2] of 298 µM. For the same molecule, the MIC [7] was 256 µg/mL (≈ 555 µM), the IC50 [3] was 205 µM and the IC50 [4] was 206 µM. For the same molecule, the MIC [8] was over 256 µg/mL.

In the case of `Cc1cc(/C=C2/C(=O)NC(=S)N(c3ccccc3F)C2=O)c(C)n1-c1cc(C(=O)O)cc(C(=O)O)c1`, the Activity [10] is reported as 71%, the IC50 [1] is reported as 311 µM and the IC50 [2] is reported as 344 µM. The Activity [9] was 60%.

Work on `Cc1cc(/C=C2/C(=O)NC(=O)N(c3ccc(Br)cc3)C2=O)c(C)n1-c1cc(C(=O)O)cc(C(=O)O)c1` yielded an Activity [10] of 71%, an Activity [6] of 60% and an IC50 [1] of 211 µM. For the same molecule, the Activity [9] was 62%.

`Cc1cc(/C=C2/S/C(=N/c3ccc(F)cc3)NC2=O)c(C)n1C` showed an Activity [10] of 78%, an Activity [6] of 67% and an Activity [11] of 76%. The Activity [9] was 82%.

Molecule `Cc1cc(/C=C2/S/C(=N/c3ccc(Br)cc3)NC2=O)c(C)n1-c1cc(C(=O)O)cc(C(=O)O)c1` has an IC50 [1] of 89 µM, an IC50 [2] of 102 µM and an IC50 [3] of 44 µM. It also gave an IC50 [4] of 66 µM.

For `O=C1NC(=S)N(c2ccc(Cl)cc2)C(=O)/C1=C\c1cc2ccccc2[nH]1`, the Activity [10] was 71%, the Activity [6] was 20% and the IC50 [1] was 44 µM. For the same molecule, the Activity [9] was 77%.

For GENTAMICIN, the MIC [8] was 8 µg/mL.

In the case of `Cc1cc(/C=C2/SC(=S)NC2=O)c(C)n1-c1cc(C(=O)O)cc(C(=O)O)c1`, the MIC [5] is reported as over 256 µg/mL, the Activity [6] is reported as 89% and the MIC [7] is reported as 256 µg/mL (≈ 636 µM). The IC50 [3] was 133 µM, the IC50 [4] was 95 µM and the MIC [8] was 128 µg/mL (≈ 318 µM).

In the case of `Cc1cc(/C=C2/C(=O)NC(=S)N(c3cccc(Cl)c3Cl)C2=O)c(C)n1-c1cc(C(=O)O)cc(C(=O)O)c1`, the Activity [6] is reported as 86% and the Activity [9] is reported as 96%.

`Cc1cc(/C=C2/S/C(=N/c3ccc(Cl)cc3)NC2=O)c(C)n1-c1cc(C(=O)O)cc(C(=O)O)c1` gave a Ki [12] of 29 µM, an IC50 [1] of 93 µM and an IC50 [2] of 89 µM. The Ki [13] was 39 µM, the Ki [14] was 21 µM and the IC50 [3] was 41 µM. For the same molecule, the IC50 [4] was 60 µM.

`CCc1ccccc1N1C(=O)/C(=C\c2cc(C)n(-c3cc(C(=O)O)cc(C(=O)O)c3)c2C)C(=O)NC1=S` gave an Activity [6] of 68% and an Activity [9] of 85%.

`Cc1cc(/C=C2/S/C(=N/c3cccc(Br)c3)NC2=O)c(C)n1C1CCCCC1` showed an Activity [10] of 79%, an Activity [6] of 93% and an Activity [11] of 91%. The Activity [9] was 89%.

`O=C1NC(=S)N(c2ccc(Br)cc2)C(=O)/C1=C\c1ccc2c(c1)OCO2` showed an Activity [10] of 91%, an Activity [6] of 95% and an Activity [11] of 81%. For the same molecule, the Activity [9] was 120%.

Work on `COc1ccc(/N=C2\NC(=O)/C(=C\c3cc(C)n(-c4cc(C(=O)O)cc(C(=O)O)c4)c3C)S2)cc1` yielded an IC50 [1] of 303 µM, an IC50 [2] of 281 µM and an IC50 [3] of 172 µM. For the same molecule, the IC50 [4] was 168 µM.

Molecule `O=C1NC(=S)N(c2ccc(F)cc2)C(=O)/C1=C\c1ccc2c(c1)OCO2` has an Activity [10] of 102%, an Activity [6] of 81% and an Activity [11] of 97%. For the same molecule, the Activity [9] was 108%.

`CCc1ccc(N2C(=O)/C(=C\c3cc(C)n(C4CCCCC4)c3C)C(=O)NC2=S)cc1` gave an Activity [10] of 100%, an Activity [6] of 75% and an Activity [11] of 97%. For the same molecule, the Activity [9] was 92%.

`Cc1cc(/C=C2/C(=O)NC(=S)N(c3cccc(Cl)c3)C2=O)c(C)n1-c1cc(C(=O)O)cc(C(=O)O)c1` showed an Activity [6] of 78% and an Activity [9] of 80%.

`CO/N=C(\C(=O)N[C@@H]1C(=O)N2C(C(=O)O)=C(COC(N)=O)CS[C@H]12)c1ccco1` [CEFUROXIME] was tested, and the MIC [7] was 0.5 µg/mL (≈ 1.18 µM).

From ChEMBL document CHEMBL3351521, “Benzene-1,3-dicarboxylic acid 2,5-dimethylpyrrole derivatives as multiple inhibitors of bacterial Mur ligases (MurC-MurF)” (Bioorg Med Chem, 2014)
